Test results reported in BindingDB's records for doi:10.7270/Q2S180X7 (Vanderbilt Screening Center For Gpcrs, Ion Channels and …, 2009).

Biological target: T1, Muscarinic acetylcholine receptor M5 (Homo sapiens, UniProt P08912)
T1 sequence (P08912 whole entry): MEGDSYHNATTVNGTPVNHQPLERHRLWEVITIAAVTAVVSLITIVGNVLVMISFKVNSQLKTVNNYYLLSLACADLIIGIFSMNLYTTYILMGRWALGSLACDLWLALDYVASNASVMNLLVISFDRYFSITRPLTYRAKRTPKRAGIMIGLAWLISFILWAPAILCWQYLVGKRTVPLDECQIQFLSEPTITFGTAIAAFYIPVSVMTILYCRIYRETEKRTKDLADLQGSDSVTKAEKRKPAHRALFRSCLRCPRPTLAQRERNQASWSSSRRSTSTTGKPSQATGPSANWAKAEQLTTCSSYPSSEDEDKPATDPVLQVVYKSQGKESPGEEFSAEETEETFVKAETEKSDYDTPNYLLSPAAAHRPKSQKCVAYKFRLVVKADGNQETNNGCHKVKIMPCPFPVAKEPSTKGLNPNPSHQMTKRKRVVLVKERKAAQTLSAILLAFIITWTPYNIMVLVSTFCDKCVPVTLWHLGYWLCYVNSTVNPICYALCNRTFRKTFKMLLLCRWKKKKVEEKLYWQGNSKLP
Assay: binding competition at muscarinic M5 – biochemical, [3H]N-methylscopolamine (AID 2192)
Settings: inactive by the depositor's call

COc1ccc(CN2C(=O)C(=O)c3cc(OC(F)(F)F)ccc32)cc1 [VU0238429]
EC50: 1.71 µM
